{
  "source": "patent US9371265B2",
  "about": "“Compositions and methods related to inhibitors of JAK kinase” (EP PHARMA, INC., priority 2012, dated 2016)",
  "key": {"FGFR3": {"target": "FGFR3 (Homo sapiens, UniProt P22607)", "sequence (P22607 23-806)": "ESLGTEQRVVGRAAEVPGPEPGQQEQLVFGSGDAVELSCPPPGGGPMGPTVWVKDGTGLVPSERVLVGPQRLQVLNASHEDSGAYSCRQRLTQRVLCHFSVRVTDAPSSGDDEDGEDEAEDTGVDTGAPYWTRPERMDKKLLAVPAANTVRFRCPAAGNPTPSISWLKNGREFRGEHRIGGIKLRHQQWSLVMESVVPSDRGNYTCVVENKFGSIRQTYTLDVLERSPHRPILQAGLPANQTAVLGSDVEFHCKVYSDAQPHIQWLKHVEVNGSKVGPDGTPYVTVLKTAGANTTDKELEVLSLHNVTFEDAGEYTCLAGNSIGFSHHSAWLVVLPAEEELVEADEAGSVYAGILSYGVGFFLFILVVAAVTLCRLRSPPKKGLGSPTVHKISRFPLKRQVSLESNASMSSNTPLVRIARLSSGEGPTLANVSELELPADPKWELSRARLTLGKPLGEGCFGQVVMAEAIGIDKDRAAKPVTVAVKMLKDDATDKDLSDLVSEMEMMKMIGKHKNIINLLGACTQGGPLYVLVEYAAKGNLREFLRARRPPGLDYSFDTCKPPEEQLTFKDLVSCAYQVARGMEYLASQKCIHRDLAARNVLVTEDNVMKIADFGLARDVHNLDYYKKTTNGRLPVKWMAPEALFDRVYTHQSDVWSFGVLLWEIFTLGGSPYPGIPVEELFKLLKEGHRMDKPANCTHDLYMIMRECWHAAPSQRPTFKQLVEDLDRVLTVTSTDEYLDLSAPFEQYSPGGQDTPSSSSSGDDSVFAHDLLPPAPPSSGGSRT", "assay": "Kinase panel: FGFR3", "format": "biochemical", "conditions": "10 μM EP009", "procedure": "(§1) Achieving JAK3 selectivity remains a significant challenge in the development of new small molecules for the treatment of cancer and immune-derived diseases. As such, the inventors employed cell-based screening assays of small-molecule libraries based upon the chemical scaffold of the established JAK3 inhibitor NC1153 (Stepkowski et al., J Immunol. (2005), 175(7):4236-4246) EP009 (FIG. 2A) was selected as a lead compound due to improved intrinsic stability (>95% purity in various solvents at 37° C. for 24 hours; FIG. 3) and high-degree of JAK3 selectivity. To test JAK3 versus JAK2 specificity of EP009, the IL-2/JAK3-dependent Kit225, and IL-3/JAK2-dependent BaF/3 cell lines were used. Kit225 and BaF/3 cells growing in the presence of IL-2 or IL-3, respectively, were treated with ascending concentrations of EP009 for 12 hours and cellular JAK3 and JAK2 tyrosine phosphorylation levels detected by Western blot analysis (FIGS. 2B and 2C). Following densitometric analysis, EP009 was determined to dose-dependently reduce IL-2-mediated JAK3 tyrosine phosphorylation with a cellular 50% inhibitory concentration (IC50) between 10 and 20 μM (FIG. 2B). […] To globally evaluate specificity, the inhibitory activity of EP009 was measured against a panel of protein kinases distributed throughout the kinome using the scanEDGE profiling service (KINOMEscan). […]"}, "CDK11": {"target": "CDK11 (Homo sapiens, UniProt Q9BWU1)", "sequence (Q9BWU1 whole entry)": "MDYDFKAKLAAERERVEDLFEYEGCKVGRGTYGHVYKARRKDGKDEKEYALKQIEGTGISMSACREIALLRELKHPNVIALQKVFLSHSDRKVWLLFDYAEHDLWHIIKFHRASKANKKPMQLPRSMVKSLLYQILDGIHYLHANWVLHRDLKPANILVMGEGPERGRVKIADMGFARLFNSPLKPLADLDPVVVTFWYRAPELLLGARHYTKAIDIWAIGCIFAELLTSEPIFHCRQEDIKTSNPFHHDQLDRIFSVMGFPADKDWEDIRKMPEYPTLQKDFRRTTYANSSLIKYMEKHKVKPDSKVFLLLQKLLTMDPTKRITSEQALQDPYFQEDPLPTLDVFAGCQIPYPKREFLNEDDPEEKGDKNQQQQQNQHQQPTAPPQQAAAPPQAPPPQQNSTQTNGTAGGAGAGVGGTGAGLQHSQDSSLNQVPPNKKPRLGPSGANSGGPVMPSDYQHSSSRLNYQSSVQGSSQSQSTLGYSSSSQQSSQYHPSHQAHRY", "assay": "Kinase panel: CDK11", "format": "biochemical", "conditions": "10 μM EP009", "procedure": "as §1"}, "EPHA2": {"target": "EPHA2 (Homo sapiens, UniProt P29317)", "sequence (P29317 24-976)": "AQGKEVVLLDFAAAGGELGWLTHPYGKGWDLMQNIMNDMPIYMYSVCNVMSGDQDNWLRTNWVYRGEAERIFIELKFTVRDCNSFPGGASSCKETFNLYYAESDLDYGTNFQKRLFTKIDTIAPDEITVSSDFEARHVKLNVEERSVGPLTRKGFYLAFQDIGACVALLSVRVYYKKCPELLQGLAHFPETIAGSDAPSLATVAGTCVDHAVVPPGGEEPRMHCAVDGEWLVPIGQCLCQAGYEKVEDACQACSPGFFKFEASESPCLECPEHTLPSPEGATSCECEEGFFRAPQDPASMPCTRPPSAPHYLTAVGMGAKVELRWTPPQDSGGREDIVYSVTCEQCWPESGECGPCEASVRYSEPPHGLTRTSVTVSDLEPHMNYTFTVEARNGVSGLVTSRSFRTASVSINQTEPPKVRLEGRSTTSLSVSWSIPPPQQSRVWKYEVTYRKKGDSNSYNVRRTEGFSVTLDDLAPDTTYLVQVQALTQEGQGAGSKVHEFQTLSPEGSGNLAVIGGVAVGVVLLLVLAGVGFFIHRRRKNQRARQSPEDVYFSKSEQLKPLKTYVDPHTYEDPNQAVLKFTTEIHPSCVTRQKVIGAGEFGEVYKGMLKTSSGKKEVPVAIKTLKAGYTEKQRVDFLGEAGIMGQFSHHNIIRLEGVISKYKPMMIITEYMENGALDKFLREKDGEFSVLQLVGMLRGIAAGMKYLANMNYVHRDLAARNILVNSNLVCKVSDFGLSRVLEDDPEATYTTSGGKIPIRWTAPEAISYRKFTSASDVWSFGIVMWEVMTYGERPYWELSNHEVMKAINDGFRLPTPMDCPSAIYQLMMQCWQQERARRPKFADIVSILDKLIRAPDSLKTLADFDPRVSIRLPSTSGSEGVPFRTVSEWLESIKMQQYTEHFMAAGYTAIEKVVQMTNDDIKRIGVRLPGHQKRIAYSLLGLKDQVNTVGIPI", "assay": "Kinase panel: EPHA2", "format": "biochemical", "conditions": "10 μM EP009", "procedure": "as §1"}, "BRAF": {"target": "BRAF (Homo sapiens, UniProt P15056)", "sequence (P15056 whole entry)": "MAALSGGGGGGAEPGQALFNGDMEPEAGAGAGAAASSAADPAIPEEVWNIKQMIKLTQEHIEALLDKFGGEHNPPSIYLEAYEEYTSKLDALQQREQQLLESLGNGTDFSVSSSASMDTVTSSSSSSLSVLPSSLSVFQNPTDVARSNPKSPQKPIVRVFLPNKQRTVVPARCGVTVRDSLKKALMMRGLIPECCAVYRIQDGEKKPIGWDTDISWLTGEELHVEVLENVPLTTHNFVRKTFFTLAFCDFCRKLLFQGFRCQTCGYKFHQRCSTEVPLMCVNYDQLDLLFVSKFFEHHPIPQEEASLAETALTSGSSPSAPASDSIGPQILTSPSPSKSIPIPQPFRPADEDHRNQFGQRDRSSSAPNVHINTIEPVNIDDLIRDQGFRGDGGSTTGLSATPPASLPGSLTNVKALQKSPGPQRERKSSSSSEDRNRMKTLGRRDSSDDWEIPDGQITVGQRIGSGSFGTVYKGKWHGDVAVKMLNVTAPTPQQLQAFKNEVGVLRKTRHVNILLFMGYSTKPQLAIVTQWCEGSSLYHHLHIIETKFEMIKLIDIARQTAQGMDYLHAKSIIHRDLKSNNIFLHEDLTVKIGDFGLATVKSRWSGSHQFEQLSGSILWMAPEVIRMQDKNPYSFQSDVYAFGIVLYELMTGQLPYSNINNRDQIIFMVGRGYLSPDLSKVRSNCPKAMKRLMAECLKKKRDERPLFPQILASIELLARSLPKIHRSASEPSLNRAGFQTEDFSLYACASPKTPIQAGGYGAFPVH", "assay": "Kinase panel: BRAF", "format": "biochemical", "conditions": "10 μM EP009", "procedure": "as §1"}, "[1]": {"assay": "Oral pharmacokinetics in rats (plasma, LC-MS/MS)", "format": "in vivo, Sprague Dawley rats", "conditions": "single oral dose of 200 mg/kg", "procedure": "FIGS. 9A-9B Pharmacokinetics and efficacy of EP009 in vivo. (A) Sprague Dawley rats were administered EP009 by oral gavage (200 mg/kg) and pharmacokinetics measured by analysis of plasma concentrations at indicated time points. Values represent mean concentrations, while error bars represent the standard deviation (n=5). (B) Therapeutic study of EP009 in SU-DHL-1 model in SCID/NOD mice.\nEP009 (200 mg/kg) was administered orally to Sprague Dawley rats (Texas Animal Specialties) of ˜200 g weight (n=5) after an overnight fast. Blood (˜200 μl) was drawn at 0.5, 1, 2, 4, 8 and 24 hours after dosing and plasma was collected and snap-frozen in liquid nitrogen. EP009 plasma concentrations were determined by a liquid chromatography tandem mass spectrometry (LC-MS/MS) system. This system included a HPLC (Shimadzu Scientific Corporation) with an ACE C18 column (50×2.1 mm, 5 um) and an API-4000 (triple-quadruple) mass spectrometer (ABSciex, Inc) with an electrospray ionization source. A positive multiple reaction monitoring (MRM) scan was applied. The mobile phase A and B used in this study were 0.1% formic acid in 5 mM ammonium acetate and 0.1% formic acid in 100% acetonitrile. Plasma samples (50 μL) were mixed with 50 μL of blank plasma and 300 μL of internal standard solution (Verapamil, 20 ng/mL in 100% acetonitrile). After vortexing for 1 min and centrifuging for 5 min at 16,000×g, 300 μL supernatants were analyzed by LC-MS/MS. The limit of quantitation was 1 ng/mL of EP009 in plasma and the calibration range was from 1 to 2000 ng/mL."}, "[2]": {"test_system": "IL-3/JAK2-dependent BaF/3 cells", "assay": "BaF/3 cell viability (MTS)", "format": "cell-based, murine", "conditions": "identical concentrations of EP009 (up to 10 μM), 72 hours", "procedure": "FIGS. 2A-2F. […] (B) Kit225 or (C) BaF/3 cells cultured in the presence of IL-2 or IL-3, respectively, were treated with vehicle (PBS; lane a) or increasing amounts of EP009 (0-50 μM; lanes b-h) for 12 hours. Cells were then lysed, clarified, and immunoprecipitated (IP) with anti-JAK3 (α-JAK3) or anti-JAK2 (α-JAK2), and subjected to Western blot (WB) analysis with anti-phosphotyrosine (α-pY). Blots were stripped and reprobed with corresponding antibody to verify equivalent protein loading. (D) Immunopurified JAK3 was subjected to in vitro autokinase analysis after treatment with vehicle (DMSO; lanes a and b) or ascending concentrations of EP009 (0-10 μM; lanes c-f) for 1 hour at room temperature. […] (E) Kit225 or BaF/3 cells were cultured with increasing amounts of EP009 (0-10 μM) for 72 hours and cell viability measured with the MTS tetrazolium salt assay. Values represent mean absorbance (OD490-OD650 nm) normalized to vehicle (PBS) treated control cells, while error bars represent the standard deviation (n=3). (F) HEK293, HEPG2, or naïve primary human PBMCs were cultured with increasing amounts of EP009 (0-10 μM) for 72 hours and cell viability measured with the MTS tetrazolium salt assay. Values represent mean absorbance (OD490-OD650 nm) normalized to vehicle (PBS) treated control cells, while error bars represent the standard deviation (n=3). […]"}},
  "note": "“And” between values parts separate entries of the source, which are not always exact repeats. Identical values can stand only once.",
  "data": [
    {"smiles": "C=C1CCCCCCCCCC(CO)C1=O", "note": "(stereo not drawn) [EP009, 2-(Hydroxymethyl)-12-methylenecyclododecanone]", "values": [
      {"measurement": "Kinase Activity (% of Control)", "setting": "FGFR3", "result": "100 % of Control"},
      {"measurement": "Kinase Activity (% of Control)", "setting": "CDK11", "result": "100 % of Control"},
      {"measurement": "Kinase Activity (% of Control)", "setting": "EPHA2", "result": "100 % of Control"},
      {"measurement": "Kinase Activity (% of Control)", "setting": "BRAF", "result": "72 % of Control"},
      {"measurement": "AUC(0-t)", "setting": "[1]; Sprague Dawley, rat, plasma, read-out: area under the concentration-time curve (AUC-t)", "result": "2110 ng·h/mL and 6.1 µM·h"},
      {"measurement": "half-life", "setting": "[1]; Sprague Dawley, rat, plasma, read-out: half-life (t1/2) (converted)", "result": 1, "unit": "h"},
      {"measurement": "Cmax", "setting": "[1]; Sprague Dawley, rat, plasma, read-out: peak plasma concentration (Cmax)", "result": "2000 ng/mL and 5.74 µM"},
      {"measurement": "plasma levels eight hours after dosing", "setting": "[1]", "result": "declined to the limit of detection"},
      {"measurement": "effect on BaF/3 cell viability", "setting": "[2]", "result": "no effect"}
    ]}
  ]
}
